From patent publication US9115092B2, “Substituted quinazoline and pyrido-pyrimidine derivatives” (Asana Biosciences, LLC, priority 2010, dated 2015) come the findings set out here.

Bounds are passed on as bounds.

Assay [1] deals with PC3 cells. Description: XTT assay for cell viability, PC3 cells. Type of assay: cell-based, human. The settings on record: Homo sapiens, PC-3, cell viability. As for the experimental part: Using a commercial kit from Sigma Aldrich (Catalog #X34251) and following its protocol, PC3 cells in the log phase of growth were employed and seeded at an optimal density of 1000 cell/well on to 96 well plates and incubated for 24 h followed by the addition of compounds of formula (I) in serial dilutions. Compound dilutions were made in DMSO. The cells were incubated with the compounds of formula (I) for 96 h and XTT tetrazolium dye (Sigma, USA) was subsequently added and incubated at 37° C. After the color formation, absorbance was measured at 465 nm in a Spectramax® Gemini spectrophotometer. EC50 values were calculated using a sigmoidal dose response curve fit in GraphPad Prism® v5 software. The tested compounds of formula (I) which caused inhibition of PC3 cell proliferation as determined by this assay protocol are shown in Table 2.

Assay [2] has as its target T1, mTOR kinase (Homo sapiens, UniProt P42345).
T1 construct: purchased Millipore, USA
The assay can be described thus: mTOR kinase TR-FRET assay. To be noted: read-out: mTO R. Format: biochemical. Summed up: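 TR-FRET read-out (340 nm excitation, 615/665 nm emission) of Thr389 phosphorylation of a ULight-labeled p70 S6K peptide (50 nM) by mTOR, 20 μM ATP, 60 min room temperature after 60 min compound preincubation. Buffer HEPES pH 7.5 with MnCl2, EGTA; IC50 by sigmoidal dose-response.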
Background: In TR-FRET formats the signal depends on donor and acceptor labels being close together.

In assay [3] the target is T2, PI3Kα (wild-type), P110/P85α (Homo sapiens, UniProt P42336).
T2 construct: made in house; host or cells: SF9 insect cells
The assay can be described thus: PI3 Kinase TR-FRET assay, PI3Kα (wild-type). Format: biochemical. The method in brief:
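TR-FRET read-out of PIP3 formation via biotin-PIP3 displacement (665/615 nm ratio) gave IC50 curves. Enzyme: 5 ng wild-type P110/P85α from Sf9 cells, 60 min RT with compound and PIP2 (MgCl2 40 mM, DTT 5 mM), then 30 min RT kinase reaction at 10 μM ATP and 10 μM PIP2.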

T2 sequence (P42336 whole entry): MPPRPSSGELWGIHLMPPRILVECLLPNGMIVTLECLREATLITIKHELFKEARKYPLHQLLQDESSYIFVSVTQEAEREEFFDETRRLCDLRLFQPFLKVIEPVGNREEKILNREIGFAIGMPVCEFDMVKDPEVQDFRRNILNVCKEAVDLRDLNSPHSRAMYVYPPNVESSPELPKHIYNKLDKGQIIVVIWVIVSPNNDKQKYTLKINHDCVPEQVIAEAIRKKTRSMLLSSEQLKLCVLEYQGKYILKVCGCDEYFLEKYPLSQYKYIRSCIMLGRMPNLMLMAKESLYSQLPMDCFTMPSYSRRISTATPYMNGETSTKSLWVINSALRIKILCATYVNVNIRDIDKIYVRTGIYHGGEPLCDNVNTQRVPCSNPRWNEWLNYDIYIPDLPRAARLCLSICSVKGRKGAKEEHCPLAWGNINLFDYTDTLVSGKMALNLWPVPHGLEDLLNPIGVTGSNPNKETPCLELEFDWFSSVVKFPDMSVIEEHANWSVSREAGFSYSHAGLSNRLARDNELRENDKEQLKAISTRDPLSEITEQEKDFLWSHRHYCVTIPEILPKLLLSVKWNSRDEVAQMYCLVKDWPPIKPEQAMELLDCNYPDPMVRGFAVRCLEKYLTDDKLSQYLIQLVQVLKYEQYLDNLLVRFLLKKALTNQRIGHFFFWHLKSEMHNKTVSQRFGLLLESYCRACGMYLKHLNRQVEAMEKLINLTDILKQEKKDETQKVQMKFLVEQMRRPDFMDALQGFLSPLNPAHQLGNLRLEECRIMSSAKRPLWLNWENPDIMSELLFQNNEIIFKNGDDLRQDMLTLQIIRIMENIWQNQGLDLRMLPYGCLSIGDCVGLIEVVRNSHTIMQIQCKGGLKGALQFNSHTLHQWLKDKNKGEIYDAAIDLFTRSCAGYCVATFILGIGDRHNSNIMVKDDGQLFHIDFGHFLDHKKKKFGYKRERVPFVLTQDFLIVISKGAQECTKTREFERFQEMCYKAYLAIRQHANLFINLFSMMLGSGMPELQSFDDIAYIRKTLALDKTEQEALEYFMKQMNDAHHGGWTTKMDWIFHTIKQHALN
T2 sequence (P27986 whole entry partner): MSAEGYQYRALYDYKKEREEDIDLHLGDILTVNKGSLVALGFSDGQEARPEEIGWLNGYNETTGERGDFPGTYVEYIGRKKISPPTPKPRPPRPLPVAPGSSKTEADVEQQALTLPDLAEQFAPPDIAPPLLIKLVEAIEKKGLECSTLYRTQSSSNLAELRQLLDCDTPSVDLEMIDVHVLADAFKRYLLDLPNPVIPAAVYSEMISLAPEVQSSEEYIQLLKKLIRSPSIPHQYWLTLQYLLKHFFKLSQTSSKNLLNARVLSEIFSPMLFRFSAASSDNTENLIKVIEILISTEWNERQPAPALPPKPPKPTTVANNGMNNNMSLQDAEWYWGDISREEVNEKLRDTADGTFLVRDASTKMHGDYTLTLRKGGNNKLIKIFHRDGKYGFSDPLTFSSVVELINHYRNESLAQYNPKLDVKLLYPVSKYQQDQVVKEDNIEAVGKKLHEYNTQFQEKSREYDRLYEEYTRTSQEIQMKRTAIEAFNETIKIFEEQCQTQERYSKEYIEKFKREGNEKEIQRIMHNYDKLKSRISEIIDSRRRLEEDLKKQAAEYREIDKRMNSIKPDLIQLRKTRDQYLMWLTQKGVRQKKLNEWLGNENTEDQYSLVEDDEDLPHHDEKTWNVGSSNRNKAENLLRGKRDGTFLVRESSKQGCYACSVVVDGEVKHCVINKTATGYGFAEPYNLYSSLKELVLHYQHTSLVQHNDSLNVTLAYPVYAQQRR

Turning to `Cc1ccc(-c2ccc3c(N4CCOCC4)nc(-c4ccc(NC(=O)Nc5ccc(C(=O)N6CCC(N(C)C)C6)cc5)cc4)nc3c2)o1` (stereo in doubt) [Example 195, (S)-1-(4-(3-(dimethylamino)pyrrolidine-1-carbonyl)phenyl)-3-(4-(7-(5-methylfuran-2-yl)-4-morpholino-quinazolin-2-yl)phenyl)urea], the IC50 in assay [1] is less than 0.1 µM; in assay [2], less than 0.05 µM; in assay [3], 0.05 to 0.2 µM.
Taken in the same sequence, the figures for `NC1CCN(C(=O)c2ccc(NC(=O)Nc3ccc(-c4nc(N5CCOCC5)c5ccc(-c6ccco6)cc5n4)cc3)cc2)C1` (stereo in doubt) [Example 234, (S)-1-(4-(3-aminopyrrolidine-1-carbonyl)phenyl)-3-(4-(7-(furan-2-yl)-4-morpholino-quinazolin-2-yl)phenyl)urea] were 0.201 to 10 µM, less than 0.05 µM and less than 0.05 µM.
Taken in the same sequence, the figures for `CN1CCN(C(=O)c2ccc(NC(=O)Nc3ccc(-c4nc(N5CCOCC5)c5cc(F)c(-c6cccnc6)cc5n4)cc3)cc2)CC1` [Example 4, 1-[4(6-Fluoro-4-morpholin-4-yl-7-pyridin-3-yl-quinazolin-2-yl)-phenyl]-3-[4-(4-methyl-piperazine-1-carbonyl)-phenyl]-urea] were less than 0.1 µM, less than 0.05 µM and less than 0.05 µM.
As to `CN(C)C(=O)c1ccc(NC(=O)Nc2ccc(-c3nc(N4CCOCC4)c4cccc(-c5cccc(O)c5)c4n3)cc2)cc1` [Example 5, 4-(3-{4-[8-(3-Hydroxy-phenyl)-4-morpholin-4-yl-quinazolin-2-yl]-phenyl}-ureido)-N,N-dimethyl-benzamide], the IC50 in assay [1] is less than 0.1 µM; in assay [2], less than 0.05 µM; in assay [3] it was 0.05 to 0.2 µM.
Taken in the same sequence, the figures for `CN(C)C(=O)c1ccc(NC(=O)Nc2ccc(-c3nc(N4CCOCC4)c4cccc(-c5ccc(F)nc5)c4n3)cc2)cc1` [Example 6, 4-(3-{4-[8-(6-Fluoro-pyridin-3-yl)-4-morpholin-4-yl-quinazolin-2-yl]-phenyl}-ureido)-N,N-dimethyl-benzamide] were 0.1 to 0.5 µM, less than 0.05 µM and 0.05 to 0.2 µM.
Taken in the same sequence, the figures for `CN(C)C(=O)c1ccc(NC(=O)Nc2ccc(-c3nc(N4CCOCC4)c4ncc(-c5cncnc5)cc4n3)cc2)cc1` [Example 9, N,N-Dimethyl-4-{3-[4-(4-morpholin-4-yl-7-pyrimidin-5-yl-pyrido[3,2-d]-pyrimidin-2-yl)-phenyl]-ureido}-benzamide] were less than 0.1 µM, less than 0.05 µM and less than 0.05 µM.
Taken in the same sequence, the figures for `CC(=O)Nc1ccc(NC(=O)Nc2ccc(-c3nc(N4CCOCC4)c4ccc(-c5ccc(C)o5)cc4n3)cc2)cc1` [Example 17, N-(4-(3-(4-(7-(5-methylfuran-2-yl)-4-morpholino-quinazolin-2-yl)phenyl)ureido)phenyl)acetamide] were 0.1 to 0.5 µM, 0.05 to 0.2 µM and 0.05 to 0.2 µM.
For the compound `CN(C)C(=O)c1ccc(NC(=O)Nc2ccc(-c3nc(N4CCOCC4)c4ccc(-c5cccnc5F)cc4n3)cc2)cc1` [Example 21, 4-(3-{4-[7-(2-fluoro-pyridin-3-yl)-4-morpholin-4-yl-quinazolin-2-yl]-phenyl}-ureido)-N,N-dimethyl-benzamide], the results for the IC50 in assay [1], in assay [2] and in assay [3] were 0.1 to 0.5 µM, less than 0.05 µM and 0.05 to 0.2 µM, respectively.
For `CN(C)C(=O)c1ccc(NC(=O)Nc2ccc(-c3nc(N4CCOCC4)c4ccc(-c5cccc(NS(C)(=O)=O)c5)cc4n3)cc2)cc1` [Example 23, 4-(3-{4-[7-(3-methanesulfonylamino-phenyl)-4-morpholin-4-yl-quinazolin-2-yl]-phenyl}-ureido)-N,N-dimethyl-benzamide] the same measures were 0.501 to 5 µM, 0.05 to 0.2 µM and less than 0.05 µM.
With `CS(=O)(=O)c1cccc(-c2ccc3c(N4CCOCC4)nc(-c4ccc(NC(=O)Nc5ccc(C(N)=O)cc5)cc4)nc3c2)c1` [Example 25, 4-(3-{4-[7-(3-methanesulfonyl-phenyl)-4-morpholin-4-yl-quinazolin-2-yl]-phenyl}-ureido)-benzamide], the IC50 in assay [1] was in the range of 0.501 to 5 µM; in assay [2], 0.05 to 0.2 µM; in assay [3] it was 0.05 to 0.2 µM.
On to `CN1CCN(C(=O)c2ccc(NC(=O)Nc3ccc(-c4nc(N5CCOCC5)c5ccc(-c6cccnc6F)cc5n4)cc3)cc2)CC1` [Example 26, 1-{4-[7-(2-fluoro-pyridin-3-yl)-4-morpholin-4-yl-quinazolin-2-yl]-phenyl}-3-[4-(4-methyl-piperazine-1-carbonyl)-phenyl]-urea], for which the IC50 in assay [1] is less than 0.1 µM; in assay [2] it was less than 0.05 µM; in assay [3], less than 0.05 µM.
As to `CN1CCN(C(=O)c2ccc(NC(=O)Nc3ccc(-c4nc(N5CCOCC5)c5ccc(-c6cnn(C)c6)cc5n4)cc3)cc2)CC1` [Example 27, 1-[4-(4-methyl-piperazine-1-carbonyl)-phenyl]-3-{4-[7-(1-methyl-1H-pyrazol-4-yl)-4-morpholin-4-yl-quinazolin-2-yl]-phenyl}-urea], the IC50 in assay [1] was less than 0.1 µM; in assay [2], less than 0.05 µM; in assay [3], 0.05 to 0.2 µM.
For `CN(C)C(=O)c1ccc(NC(=O)Nc2ccc(-c3nc(N4CCOCC4)c4ccc(-c5cccnc5F)cc4n3)cc2)cn1` [Example 28, 5-(3-{4-[7-(2-fluoro-pyridin-3-yl)-4-morpholin-4-yl-quinazolin-2-yl]-phenyl}-ureido)-pyridine-2-carboxylic acid dimethylamide] the same measures were less than 0.1 µM, less than 0.05 µM and 0.05 to 0.2 µM.
Taken in the same sequence, the figures for `CN(C)C(=O)c1ccc(NC(=O)Nc2ccc(-c3nc(N4CCOCC4)c4cc(F)c(-c5cccnc5)cc4n3)cc2)cc1` [Example 29, 4-{3-[4-(6-fluoro-4-morpholin-4-yl-7-pyridin-3-yl-quinazolin-2-yl)-phenyl]-ureido}-N,N-dimethyl-benzamide] were less than 0.1 µM, less than 0.05 µM and less than 0.05 µM.
For `CN(C)C(=O)c1ccc(NC(=O)Nc2ccc(-c3nc(N4CCOCC4)c4cc(F)c(-c5cncnc5)cc4n3)cc2)cc1` [Example 30, 4-{3-[4-(6-fluoro-4-morpholin-4-yl-7-pyrimidin-5-yl-quinazolin-2-yl)-phenyl]-ureido}-N,N-dimethyl-benzamide] the same measures were less than 0.1 µM, less than 0.05 µM and less than 0.05 µM.
For `CN(C)C(=O)c1ccc(NC(=O)Nc2ccc(-c3nc(N4CCOCC4)c4ccc(CN5CCC(O)CC5)cc4n3)cc2)cc1` [Example 284, 4-(3-(4-(7-((4-hydroxypiperidin-1-yl)methyl)-4-morpholino-quinazolin-2-yl)phenyl)ureido)-N,N-dimethyl-benzamide], the IC50 was in the range of 0.05 to 0.2 µM in assay [2] and 0.201 to 10 µM in assay [3].
Taken in the same sequence, the figures for `CN(C)C(=O)c1ccc(NC(=O)Nc2ccc(-c3nc(N4CCOCC4)c4ccc(C(=O)N5CCC(N(C)C)CC5)cc4n3)cc2)cc1` [Example 287, 4-(3-(4-(7-(4-(dimethylamino)piperidine-1-carbonyl)-4-morpholino-quinazolin-2-yl)phenyl)ureido)-N,N-dimethyl-benzamide] were 0.201 to 10 µM and 0.201 to 10 µM.
Taken in the same sequence, the figures for `CN(C)[C@@H]1CCN(C(=O)c2ccc(NC(=O)Nc3ccc(-c4nc(N5CCOCC5)c5ccc(C(C)(C)O)cc5n4)cc3)cc2)C1` [Example 288, (R)-1-(4-(3-(dimethylamino)pyrrolidine-1-carbonyl)phenyl)-3-(4-(7-(2-hydroxypropan-2-yl)-4-morpholino-quinazolin-2-yl)phenyl)urea] were less than 0.05 µM and 0.05 to 0.2 µM.
On to `CN(C)C(=O)c1ccc(NC(=O)Nc2ccc(-c3nc(N4CCOCC4)c4ccc(C(C)(C)O)cc4n3)cc2F)cc1` [Example 290, 4-(3-(2-fluoro-4-(7-(2-hydroxypropan-2-yl)-4-morpholino-quinazolin-2-yl)phenyl)ureido)-N,N-dimethyl-benzamide], for which the IC50 is less than 0.05 µM in assay [2] and 0.05 to 0.2 µM in assay [3].
Taken in the same sequence, the figures for `CC(=O)Nc1ccc(NC(=O)Nc2ccc(-c3nc(N4CCOCC4)c4ncc(-c5cccnc5F)cc4n3)cc2)cc1` [Example 293, N-(4-(3-(4-(7-(2-fluoropyridin-3-yl)-4-morpholinopyrido[3,2-d]pyrimidin-2-yl)phenyl)ureido)phenyl) acetamide] were less than 0.05 µM and less than 0.05 µM.
Taken in the same sequence, the figures for `CC(=O)Nc1ccc(NC(=O)Nc2ccc(-c3nc(N4CCOCC4)c4ncc(-c5cnn(C)c5)cc4n3)cc2)cc1` [Example 294, N-(4-(3-(4-(7-(1-methyl-1H-pyrazol-4-yl)-4-morpholinopyrido[3,2-d]pyrimidin-2-yl)phenyl)ureido)phenyl) acetamide] were less than 0.05 µM and less than 0.05 µM.
